These results are taken from patent US8673882B2, “Inhibitors of autotaxin” (University of Tennessee Research Foundation, priority 2011, dated 2014).

Experiment [1] deals with MM1 hepatocarcinoma cells. Put plainly: Invasion of mesothelial cell monolayer by MM1 cells. The format is cell-based, rat. From the text:
(§1) Cancer metastasis is a complex process that cannon be accurately modeled in vitro. Models that utilize cellular monolayers for the invasion of carcinoma cell come the closest to the situation in vivo. Two different cell monolayers, mouse mesothelium and human vascular endothelium were used to examine the role of ATX in the invasion of MM1 hepatocarcinoma cells and the reduction of such invasion by the chemical compounds of the present application. The mesothelial monolayer is an accepted model for invasion of body cavities lined by serous cells whereas, the HUVEC monolayer is considered to be an in vitro model of hematogenous invasion of carcinomas.
(§2) Highly invasive MM1 cells originally isolated from the AH130 rat hepatoma cells were utilized in these studies. The cells were grown in suspension in DMEM supplemented with 10% fetal bovine serum, 2 mM glutamine, 100 units/ml penicillin and 10 μg/ml streptoinycin. Mesothelial cells were isolated and cultured from C57BL/6 mice. Human umbilical cord vascular endothelial cells (HUVEC) were obtained from VEC Technologies Inc., (Rensselaer, N.Y., USA) and were grown in MCDB-131 complete medium containing 10% fetal bovine serum. 90 μg/ml heparin, 10 ng/ml EGF, 1 μg/ml hydrocortisone, 0.2 mg/ml EndoGrowth supplement, 100 units/ml penicillin G, 100 μg/ml streptomycin and 25 μg/ml amphotericin B (all from VEC Technologies). Tumor cell invasion was performed by seeding 1.3×10^5 HUVECs (passage 7) into each well of a 12-well plate pre-coated with 0.2% gelatin (Sigma) and cultured for 2 days to form a confluent monolayer. Mesothelial cells harvested from two-three mice were initially plated in 6-well plates and grown to confluency in DMEM medium supplemented with 10% fetal bovine serum in the presence of 100 units/ml penicillin G and 10 μg/ml streptomycin. When confluent, the mesothelial cells were split into three equal aliquots (˜5×10^4 cells each) and plated to three wells of a 12-well plate and grown to confluence.
Invasion of MM1 cells of Example 53 was determined and the effect of compounds of the present application in reducing the invasion was determined. For all invasion assays, MM1 cells were pre-stained with 2 μg/ml calcein AM (Invitrogen, USA) for 2 h, rinsed once, and seeded at a density of 5×10^4 cells/well over the monolayers. […] The number of tumor cells that penetrated the monolayer was photographed under a NIKON TiU inverted microscope using phase-contrast and fluorescence illumination in a minimum of five non-overlapping fields at 100× magnification. The fluorescent images were overlayed on top of the phase contrast images using the Elements BR software (version 3.1x) and the invaded MM1 cells showing the characteristic flattened morphology in the plane of focus underneath the monolayer were counted. […]

Experiment [2] deals with MM1 hepatocarcinoma cells. The experiment can be described thus: Invasion of HUVEC monolayer by MM1 cells. In kind it is cell-based, rat. The settings on record: 1.5 μM LPC; FIG. 14.
Description: as §1, §2
Invasion of MM1 cells of Example 53 was determined and the effect of compounds of the present application in reducing the invasion was determined. For all invasion assays, MM1 cells were pre-stained with 2 μg/ml calcein AM (Invitrogen, USA) for 2 h, rinsed once, and seeded at a density of 5×10^4 cells/well over the monolayers. Tumor cells were left to invade the HUVEC monolayer for 24 h in MCDB-131 complete media containing 1% serum with or without addition of 1.5 μM LPC. MM1 cells were plated on the mesothelial monolayers in 2% fetal bovine serum-supplemented DMEM medium in the presence of 100 units/ml penicillin G and 10 μg/ml streptomycin with or without 1.5 μM LPC (5 μM for the mesothelium cells) and invasion was allowed to proceed for 20 h. The day after MM1 cell seeding, non-invaded tumor cells were removed by repeated five rinses of the HUVEC monolayer (three rinses for the mesothelial monolayers) with PBS (containing Ca^2+ and Mg^2+) followed by fixation with 10% buffered formalin. The number of tumor cells that penetrated the monolayer was photographed under a NIKON TiU inverted microscope using phase-contrast and fluorescence illumination in a minimum of five non-overlapping fields at 100× magnification. The fluorescent images were overlayed on top of the phase contrast images using the Elements BR software (version 3.1x) and the invaded MM1 cells showing the characteristic flattened morphology in the plane of focus underneath the monolayer were counted. […]

In experiment [3] the test system is breast and colon cancers. To be noted: xenograft models, Zhang et al 2009; cited from earlier work.

In the case of `CCCCCCCCCCCCCc1ccc2cc(CP(=O)(OC)OC)ccc2c1` [Compound 33b, Dimethyl-6-tridecylnaphthalen-2-yl-methylphosphonate], in experiment [1] (with LPC, FIG. 12 panel E), the “MM1 cell invasion of the mesothelial monolayer” value was “inhibition”. In addition, the “LPC-dependent invasion of the HUVEC monolayer” value in experiment [2] is “blockage”.

LPA bromophosphonate [LPA-BP]: the “metastasis of breast and colon cancers” value in experiment [3] was “inhibit the metastasis”.

Turning to “lysophosphatidylcholine [LPC, reference compound]”, in experiment [1] (FIG. 12d, mesothelial cell layers), the “effect of LPC on invasion in the co-culture” value is “increases invasion in a dose-dependent manner”.
